Assay results taken from paper PMC10916402, “Meropenem-ANT3310, a unique β-lactam-β-lactamase inhibitor combination with expanded antibacterial spectrum against Gram-negative pathogens including carbapenem-resistant Acinetobacter baumannii” (Antimicrobial Agents and Chemotherapy, 2024).
Values joined by “and” are separate entries in the source; they are usually repeats but may differ in a detail not shown here. Equal values may be shown once.

Experiments:
[1] = test system: A. baumannii clinical isolates; assay: Broth microdilution MIC, A. baumannii clinical isolates; assay type: cell-based, Acinetobacter baumannii; conditions: for CLSI % Res: CLSI BP, for MEM-ANT3310 % at ≥16 µg/mL; for EUCAST % Res / EUCAST % Sus: EUCAST BP; for Number of isolates inhibited at MIC of >16 µg/mL: footnote c
Procedure: (§1) All isolates were randomly selected from the frozen culture collection of IHMA collected in 2018 and 2019. Matrix-assisted laser desorption ionization-time of flight mass spectrometry was used to confirm the identity of the organisms tested (Bruker Daltonics, Bremen, Germany).
(§2) MICs for all antimicrobial agents were determined at IHMA by broth microdilution in accordance with both CLSI ([17]) and EUCAST ([18]) guidelines. Microtiter panels were prepared by IHMA and stored at −70°C in cation-adjusted Mueller Hinton broth (CAMHB) (Becton Dickinson). Iron-depleted CAMHB was used to test cefiderocol. Panels containing ANT3310 were prepared fresh on the day of testing. […] MIC values corresponded to the first well with no visible growth. Quality control testing was performed on each day of testing with E. coli ATCC 25922, P. aeruginosa ATCC 27853, K. pneumoniae ATCC 700603 and BAA 1705, and A. baumannii NCTC 13304. MICs were interpreted using 2023 CLSI ([17]) and EUCAST ([18]) BPs.

[2] = test system: OXA-producing Enterobacterales (OXA-CRE); assay: organism not typed; assay type: cell-based; conditions: 252 OXA-producing Enterobacterales
Procedure: as §1, §2

[3] = test system: KPC-producing Enterobacterales (KPC-CRE); assay: organism not typed; assay type: cell-based; conditions: 180 KPC-producing Enterobacterales
Procedure: as §1, §2

[4] = test system: P. aeruginosa clinical isolates; assay: Broth microdilution MIC, P. aeruginosa clinical isolates; assay type: cell-based, Pseudomonas aeruginosa; conditions: 502 P. aeruginosa, 2019 global collection
Procedure: as §1, §2

[5] = test system: carbapenem-resistant Acinetobacter baumannii (CRAB) clinical isolates; assay: Broth microdilution MIC, CRAB isolates; assay type: cell-based; conditions: for CLSI % Res / EUCAST % Res / EUCAST % Sus / Number of isolates inhibited at MIC of >16 µg/mL: CRAB; for CLSI % Res: CLSI BP, for MEM-ANT3310 % at ≥16 µg/mL; for EUCAST % Res / EUCAST % Sus: EUCAST BP; for Number of isolates inhibited at MIC of >16 µg/mL: footnote c
Procedure: as §1, §2

[6] = 2018 Global collection, All A. baumannii, N 500
[7] = 2019 Global collection, All A. baumannii, N 405
[8] = CLSI BP, for MEM-ANT3310 % at ≥16 µg/mL

colistin
MIC50 [1, 6]: 0.25 µg/mL
MIC90 [1, 6]: 0.5 µg/mL
Number of isolates inhibited at MIC of 0.25 µg/mL [1, 6]: 287
Number of isolates inhibited at MIC of 0.5 µg/mL [1, 6]: 165
Number of isolates inhibited at MIC of 1 µg/mL [1, 6]: 15
Number of isolates inhibited at MIC of 4 µg/mL [1, 6]: 3
Number of isolates inhibited at MIC of 8 µg/mL [1, 6]: 2
Number of isolates inhibited at MIC of 16 µg/mL [1, 6]: 2
Number of isolates inhibited at MIC of ≤0.125 µg/mL [1, 6]: 22
CLSI % Res [1, 6]: 2.2%
EUCAST % Res [1, 6]: 2.2%
EUCAST % Sus [1, 6]: 97.8%
Number of isolates inhibited at MIC of >16 µg/mL [1, 6]: 4^c
MIC50 [1, 7]: 0.5 µg/mL
MIC90 [1, 7]: 1 µg/mL
Number of isolates inhibited at MIC of 0.25 µg/mL [1, 7]: 32
Number of isolates inhibited at MIC of 0.5 µg/mL [1, 7]: 296
Number of isolates inhibited at MIC of 1 µg/mL [1, 7]: 66
Number of isolates inhibited at MIC of 2 µg/mL [1, 7]: 5
Number of isolates inhibited at MIC of 4 µg/mL [1, 7]: 1
Number of isolates inhibited at MIC of 16 µg/mL [1, 7]: 1
CLSI % Res [1, 7]: 1.5%
EUCAST % Res [1, 7]: 1.5%
EUCAST % Sus [1, 7]: 98.5%
Number of isolates inhibited at MIC of >16 µg/mL [1, 7]: 4^c
% susceptible at EUCAST BP ([1]; A. baumannii, 2018/2019 collections): 98.1%
MIC90 ([1]; A. baumannii, one or both of the 2018/2019 collections): 1 µg/mL
MIC50 ([2]; 2018 global collection): 0.25 µg/mL
MIC90 ([2]; 2018 global collection): 8 µg/mL
CLSI % Res [2, 8]: 23.8%
EUCAST % Res ([2]; EUCAST BP): 23.8%
EUCAST % Sus ([2]; EUCAST BP): 76.2%
MIC50 ([3]; 2018 global collection): 0.25 µg/mL
MIC90 ([3]; 2018 global collection): 16 µg/mL
CLSI % Res [3, 8]: 26.7%
EUCAST % Res ([3]; EUCAST BP): 26.7%
EUCAST % Sus ([3]; EUCAST BP): 73.3%
MIC50 [4]: 1 µg/mL
MIC90 [4]: 1 µg/mL
Number of isolates inhibited at MIC of 0.25 µg/mL [4]: 4
Number of isolates inhibited at MIC of 0.5 µg/mL [4]: 21
Number of isolates inhibited at MIC of 1 µg/mL [4]: 452
Number of isolates inhibited at MIC of 2 µg/mL [4]: 21
Number of isolates inhibited at MIC of 4 µg/mL [4]: 2
Number of isolates inhibited at MIC of 16 µg/mL [4]: 1
Number of isolates inhibited at MIC of ≤0.125 µg/mL [4]: 1
MIC50 [5]: 0.25 µg/mL and 0.5 µg/mL
MIC90 [5]: 0.5 µg/mL and 1 µg/mL
Number of isolates inhibited at MIC of 4 µg/mL [5]: 2
Number of isolates inhibited at MIC of 8 µg/mL [5]: 2
Number of isolates inhibited at MIC of 16 µg/mL [5]: 2
Number of isolates inhibited at MIC of ≤0.125 µg/mL [5]: 13
CLSI % Res ([5]; 2018 Global collection, N 363): 2.8%
EUCAST % Res ([5]; 2018 Global collection, N 363): 2.8%
EUCAST % Sus ([5]; 2018 Global collection, N 363): 97.2%
Number of isolates inhibited at MIC of >16 µg/mL ([5]; 2018 Global collection, N 363): 4^c
Number of isolates inhibited at MIC of 2 µg/mL ([5]; 2019 Global collection, CRAB (MEM MICs >4 µg/mL), N 340): 4
CLSI % Res ([5]; 2019 Global collection, N 340): 1.2%
EUCAST % Res ([5]; 2019 Global collection, N 340): 1.2%
EUCAST % Sus ([5]; 2019 Global collection, N 340): 98.8%
Number of isolates inhibited at MIC of >16 µg/mL ([5]; 2019 Global collection, N 340): 4^c
